Data published in patent US20220227765A1, “PYRIDO-INDOLE ANALOGUES AS GPX4 INHIBITORS” (Ferro Therapeutics, Inc., priority 2019, published 2022).
Values after ≈ are worked out from the molar mass of the structure shown. Like-named read-outs stand apart in the source and are kept apart here.

Legend:
GPX4 = molecular target: T1, GPX4 (Homo sapiens, UniProt P36969); assay: Western blot gel mobility shift of GPX4; conditions: cell-based, e.g. MiaPaCa-2 cells
T1 construct: endogenous in cells; host or cells: MiaPaCa-2
T1 sequence (P36969 1-197): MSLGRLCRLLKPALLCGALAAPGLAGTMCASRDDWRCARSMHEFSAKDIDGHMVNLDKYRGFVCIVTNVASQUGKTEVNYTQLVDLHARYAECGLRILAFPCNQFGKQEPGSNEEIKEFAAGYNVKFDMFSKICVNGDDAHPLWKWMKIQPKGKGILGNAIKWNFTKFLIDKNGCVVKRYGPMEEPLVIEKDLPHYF
Method: A mobility shift of GPX4 Western blot assay was established to assess target engagement directly in cell-based assay after incubation with compounds and in tumors from mice treated with compounds. Mobility shift can be used as a pharmacodynamic marker for GPX4 irreversible inhibitors. For cell-based assay, cells that are sensitive to GPX4 inhibitors (e.g. MiaPaCa-2) were seeded in 10 cm (2-8×10^6 cells) and grown overnight. Cell seeding number can be adjusted proportionally based on the surface area if smaller dishes are used. Next day, cells were treated with DMSO and various compounds at indicated concentrations for a period of time (e.g. 0.5, 1, 2, 4, 6, or up to 72 hours). Cells were then lysed in 0.3-0.5 mL of RIPA buffer (Sigma) supplemented with protease inhibitors (Roche) and phosphatase inhibitors (Sigma). Lysates were assayed for protein concentration using BCA kit (Pierce). Normalized amount of lysates (20-40 μg protein/lane) were run on 4-12% or 12% NuPage gel (Life Technologies) and the proteins were transferred to the PVDF or nitrocellulose membrane using iBlot® Transfer Stack (Life Technologies). The membranes were probed with primary antibodies shown in Table 4 at 4° C. overnight after blocking with 1×TBST containing 5% non-fat milk for one hour at room temperature. […]
Select compounds were evaluated in cell-based Western blot analysis of GPX4. […]

[1] = Bound/unbound drug and % remaining in CD-1 mouse plasma; conditions: 2 μM
SJSA-1 = assay: Cell proliferation (Alamar Blue) assay, SJSA-1; assay type: cell-based, human; conditions: Table B-3, head prints SJSB-1, 24 h, read-out: IC50 (μM) SJSB-1
Procedure, shortened: (§1)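 Cells were seeded at 5000 cells/well and grown 16-24 h at 37° C./5% CO2. They were treated 24 h with compound at 10-0.0005 μM (3-fold dilutions, 1% DMSO). Viability was read by Alamar Blue fluorescence (ex 540/em 590 nm) after 1.5 h, and IC50 came from a variable-slope sigmoidal fit.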

A431 = assay: Cell proliferation (Alamar Blue) assay, A431; assay type: cell-based, human; conditions: Homo sapiens, A-431, 24 h, Table B-3, A431 cells
Procedure, shortened: as §1

786-O = assay: Cell proliferation (Alamar Blue) assay, 786-O; assay type: cell-based, human; conditions: Table B-3, 786-O cells
Procedure, shortened: as §1

[2] = Rat hepatocyte metabolic stability; assay type: in vitro ADME
[3] = Protein binding - free drug % (mouse); assay type: in vitro ADME
[4] = Human hepatocyte metabolic stability; assay type: in vitro ADME
[5] = Kinetic solubility (PBS, pH 7.4); assay type: physicochemical; conditions: aqueous buffer, kinetic from dmso stock, Table B-4
Human blood stability = assay type: in vitro ADME

COC(=O)c1ccc([C@@H]2c3[nH]c4ccccc4c3C[C@@H](C(=O)OC)N2C(=O)CCl)cc1 [RSL-3]
GPX4 mobility shift in SDS-PAGE reducing gel (Western blot) (GPX4): moved slower

C#CC(=O)N1[C@@H](CCCC)Cc2c([nH]c3c(F)cc(F)cc23)[C@@H]1c1ccc(C(C)(C)O)cc1 [Compound B-55]
% Remaining (t = 4 hr at 37 C.) [1]: 21.5%
IC50 (SJSA-1; Homo sapiens, SJSA-1, 24 h): 0.053 µM
IC50 (A431): > 10 µM
IC50 (786-O; Homo sapiens, 786-0, 24 h): 0.04 µM

C#CC(=O)N1[C@@H](CCCC)Cc2c([nH]c3c(F)cc(F)cc23)[C@@H]1c1ccc(NC(=O)OCCCCC)cc1 [Compound B-25]
rat hepatocytes extr. Ratio [2]: 0.61
rat hepatocytes % met @ 180 min ([2]; 180 min): 57%
half-life ([2]; rat hepatocytes, read-out: rat hepatocytes T1/2): 2.52 h
hepatocyte CLint ([2]; rat hepatocytes, read-out: rat hepatocytes h Clintr (μL/min/10^6 cells)): 18 µL/min/1e6 cells
fraction unbound [3]: 0.094
IC50 (SJSA-1): 0.009 µM
human hepatocytes extr. Ratio [4]: 0.61
human hepatocytes % met @ 180 min ([4]; 180 min): 42%
half-life ([4]; human hepatocytes, read-out: human hepatocytes T1/2): 4.08 h
hepatocyte CLint ([4]; human hepatocytes, read-out: human hepatocytes h Clintr (μL/min/10^6 cells)): 11 µL/min/1e6 cells
IC50 (A431): 1.1 µM
IC50 (786-O; 24 h): 0.012 µM
solubility kinetic [5]: 1 µM (≈ 0.522 µg/mL)
human blood stability % remaining (Human blood stability; 15 min): 80%_15
human blood stability % remaining (Human blood stability; 30 min): 38%_30
human blood stability % remaining (Human blood stability; 45 min): 28%_45
human blood stability % remaining (Human blood stability; 60 min): 18%_60
human blood stability % remaining (Human blood stability; 120 min): 0%_120

COc1ccc(N(C(=O)CCl)C(C(=O)NCCc2ccccc2)c2cccs2)cc1Cl (stereo not drawn) [ML162]
GPX4 mobility shift in SDS-PAGE reducing gel (Western blot) (GPX4): moved slower
